Data on five compounds can be found in patent publication US7863446B2, “Heterocycles” (Orchid Research Laboratories Limited, priority 2006, dated 2011).

One test concerns HCT-116. The test is described as follows: Anti-cancer screen (MTT), HCT-116. The test is classed as cell-based. The conditions noted are these: Homo sapiens, HCT-116, 48 hours. The method, then:
(§1) Experimental drugs are screened for anti-cancer activity in three cell lines for their GI50, TG1 and LC50 values (using 5 concentrations for each compound). The cell lines are maintained in DMEM containing 10% fetal bovine serum. 96 well microtiter plates are inoculated with cells in […] for 24 hours at 37° C., 5% CO2, 95% air and 100% relative humidity. 5000 HCT116 cells/well, 5000 NCIH460 cells/well, 10000 U251 cells/well and 5000 MDAMB231 cells/well are plated. A separate plate with these cell lines is also inoculated to determine cell viability before the addition of the compounds (T0).
(§2) Addition of Experimental Drugs
(§3) Following 24-hour incubation, experimental drugs are added to the 96 well plates. Each plate contains one of the above cell lines and the following in triplicate: 5 different concentrations (0.01, 0.1, 1, 10 and 100 μM) of 4 different compounds, appropriate dilutions of a cytotoxic standard and control (untreated) wells. Compounds are dissolved in dimethylsulfoxide (DMSO) to make 20 mM stock solutions, on the day of drug addition and frozen at −20° C. Serial dilutions of these 20 mM stock solutions are made in complete growth medium such that 100 μL of these drug solutions in medium, of final concentrations equaling 0.01, 0.1, 1, 10 and 100 μM can be added to the cells in triplicate. Standard drugs whose anti-cancer activity has been well documented and which are regularly used are doxorubicin and SAHA.
(§4) Cells are incubated with compounds for 48 hours followed by the addition of 10 μL 3-(4,5-Dimethyl-2-thiazolyl)-2,5-diphenyl-2H-tetrazolium (MTT) solution per well and a subsequent incubation at 37° C., 5% CO2, 95% air and 100% relative humidity, protected from light. After 4 hours, well contents are aspirated carefully followed by addition of 150 μL DMSO per well. Plates are agitated to ensure solution of the formazan crystals in DMSO and absorbance read at 570 nm.
(§5) Calculation of GI50, TGI and LC50
(§6) Percent growth is calculated for each compound's concentration relative to the control and zero measurement wells (T0; viability right before compound addition).
(§7) If a test well's O.D. value is greater than the T0 measurement for that cell line % Growth=(test−zero)/(control−zero)×100
(§8) If a test well's O.D. value is lower than the T0 measurement for that cell line, then % Growth=(test−zero)/zero×100 Plotting % growth versus experimental drug concentration, GI50 is the concentration required to decrease % growth by 50%; TGI is the concentration required to decrease % growth by 100% and LC50 is the concentration required to decrease % growth by 150%.

The subject of another test is NCI-H460. In words: Anti-cancer screen (MTT), NCI-H460. Format: cell-based. The conditions noted are these: Homo sapiens, NCI-H460, 48 hours. The method, then: as §1, §2, §3, §4, §5, §6, §7, §8

For the compound `NS(=O)(=O)c1ccc(-c2nc(C(F)(F)F)nc(N3CCN(C(=O)c4ccc([N+](=O)[O-])o4)CC3)c2-c2ccc(F)cc2)cc1` [Example 40, 4-{5-[4-Fluorophenyl]-4-[4-(5-nitro-2-furoyl)piperazin-1-yl]-2-(trifluoromethyl)pyrimidin-6-yl}benzenesulfonamide], the GI50 (usually the concentration giving 50% growth inhibition) amounted to 3.5 µM with HCT-116 and 3.8 µM with NCI-H460.
Take `NS(=O)(=O)c1ccc(-c2c(-c3ccc(F)cc3)nc(C(F)(F)F)nc2N2CCN(C(=O)c3ccc([N+](=O)[O-])o3)CC2)cc1` [Example 41, 4-{6-[4-Fluorophenyl]-4-[4-(5-nitro-2-furoyl)piperazin-1-yl]-2-(trifluoromethyl)pyrimidin-5-yl}benzenesulfonamide]: the GI50 in the test on HCT-116 came out at 7 µM; with NCI-H460, 4 µM.
As for `O=C(c1ccc([N+](=O)[O-])o1)N1CCN(c2nc(C(F)(F)F)nc(-c3ccncc3)c2-c2ccc(F)cc2)CC1` [Example 44, 5-[4-Fluorophenyl]-4-[4-(5-nitro-2-furoyl)piperazin-1-yl]-6-pyridin-4-yl-2-(trifluoromethyl)pyrimidine], the results for the GI50 with HCT-116 and with NCI-H460 were 26 µM and 4.5 µM, respectively.
On the same counts, the results for `NS(=O)(=O)c1cccc(-c2c(-c3ccc(F)cc3)nc(C(F)(F)F)nc2N2CCN(c3cccc(C(F)(F)F)c3)CC2)c1` [Example 73, 5-(3-Aminosulfonylphenyl)-4-(4-fluorophenyl)-2-(trifluoromethyl)-6-{4-[3-(trifluoromethyl)phenyl]piperazin-1-yl}pyrimidine] are 9.2 µM and 9 µM.
On the same counts, the results for `CSc1nn(-c2nc(C(F)(F)F)nc(-c3ccncc3)c2-c2ccc(F)cc2)c(N)c1C(=O)Nc1ccc(C)c(C)c1` [Example 143, 5-Amino-N-(4,5-dimethylphenyl)-1-[5-(4-fluorophenyl)-6-pyridin-4-yl-2-(trifluoromethyl)pyrimidin-4-yl]-3-(methylthio)-1H-pyrazole-4-carboxamide] are 20 µM and 0.1 µM.
